“Also recorded” adds a separate entry of the source.
Columns and labels:
[1] = molecular target: T1, human A2AAR (Homo sapiens, UniProt P29274); experiment: GloSensor cAMP assay in CHO cells expressing human A2AAR; assay type: cell-based; conditions: for cAMP production when tested alone (agonist behavior): A2AAR transfected CHO cells, compound alone, in comparison with NECA; for IC50: CHO cells expressing hA2AARs, GloSensor cAMP assay, mean ± standard error, read-out: IC50, inhibition of NECA-induced cAMP production
T1 construct: expressed in transfected cells; host or cells: CHO cells, crude membrane fractions
T1 sequence (P29274 whole entry): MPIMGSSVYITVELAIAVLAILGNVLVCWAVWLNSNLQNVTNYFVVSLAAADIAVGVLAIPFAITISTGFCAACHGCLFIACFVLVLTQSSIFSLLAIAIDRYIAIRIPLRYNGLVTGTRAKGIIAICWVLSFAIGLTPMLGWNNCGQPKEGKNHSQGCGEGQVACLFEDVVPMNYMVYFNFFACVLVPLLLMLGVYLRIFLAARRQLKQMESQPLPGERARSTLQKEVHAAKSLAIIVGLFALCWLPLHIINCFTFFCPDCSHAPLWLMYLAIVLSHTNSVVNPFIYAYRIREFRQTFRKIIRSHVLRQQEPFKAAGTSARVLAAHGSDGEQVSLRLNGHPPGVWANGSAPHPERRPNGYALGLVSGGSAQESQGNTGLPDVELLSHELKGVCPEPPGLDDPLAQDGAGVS
Method: The performed GloSensorÏ cAMP assay is a non-radioactive method that offers a simple and powerful approach to monitor G-protein coupled receptor (GPCR) activity through change in the intracellular cAMP concentration.
Cell culture: CHO cells stably expressing human A2AAR were grown adherently and maintained in Dulbecco’s modified Eagle’s medium with nutrient mixture F12 (DMEM/F12 with phenol red), supplemented with 10% fetal bovine serum (FBS), 100 U mL^−1 penicillin, 100 µg mL^−1 streptomycin, 2.5 µg mL^−1 amphotericin, 1 mM sodium pyruvate and 0.1 mg mL^−1 geneticin (G418), at 37 °C and aerated with 5% CO2:95% […]. Cells were grown to approximately 70–80% confluence, and transient transfection with a plasmid encoding the biosensor was performed.
GloSensorÏ cAMP assay: Cells were harvested in CO2-independent medium and were counted in a Neubauer chamber. The desired number of cells was incubated in equilibration medium containing a 3% v/v GloSensor^TM cAMP reagent stock solution, 10% FBS, and 87% CO2 independent medium. After 2 h of incubation, the cells were dispensed in the wells of a 384-well plate and, when a steady-state basal signal was obtained, the NECA referent agonist or the understudy compounds, at different concentrations, were added. […] The antagonist profile was evaluated by assessing their ability to counteract an agonist-induced increase in cAMP accumulation. The cells were incubated in the reaction medium (10 min at room temperature) with different understudy molecule concentrations and then treated with NECA. After 10 min, various luminescence reads were performed at different incubation times.
Statistical analysis: Responses were expressed as a percentage of the maximal relative luminescence units (RLU). Concentration–response curves were fitted by a nonlinear regression with the Prism 4.0 program (GraphPAD Software, San Diego, CA, USA). To quantify the NECA agonist potency, the EC50 value was calculated. The EC50 value is the concentration of agonists required to produce 50% of the maximum effect. To evaluate the antagonist profile, the IC50 values were determined. The IC50 value is the concentration of antagonists that produces a 50% inhibition of the agonist effect. Each concentration was tested three times in triplicate, and the values are given as the mean ± standard error.

[2] = molecular target: T2, human A1AR (Homo sapiens, UniProt P30542); experiment: Radioligand binding, displacement of [3H]CCPA at human A1AR in CHO cells; conditions: [3H]-CCPA displacement, geometric mean with 95% confidence limits, read-out: Ki A1
T2 construct: expressed in transfected cells; host or cells: CHO cells, crude membrane fractions
T2 sequence (P30542 1-326): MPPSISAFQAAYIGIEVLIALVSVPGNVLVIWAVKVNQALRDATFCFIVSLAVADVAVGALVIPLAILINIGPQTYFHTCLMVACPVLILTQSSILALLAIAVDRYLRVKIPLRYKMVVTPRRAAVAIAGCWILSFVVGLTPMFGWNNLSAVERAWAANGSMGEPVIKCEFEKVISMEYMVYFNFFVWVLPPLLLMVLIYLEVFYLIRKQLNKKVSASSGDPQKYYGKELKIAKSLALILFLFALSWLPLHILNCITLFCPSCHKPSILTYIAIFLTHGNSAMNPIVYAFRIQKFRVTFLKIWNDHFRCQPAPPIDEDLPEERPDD
Method: (§1) The radioligand binding experiments were carried out exactly as described previously. For A1AR binding, 1 nM [^3H]CCPA was used as a radioligand, whereas 30 and 10 nM [^3H]NECA were used for A2A and A3 ARs, respectively. Nonspecific binding was determined in the presence of 1 mM theophylline (A1AR) or […] R-PIA (A2A and A3 ARs). Ki values were calculated from competition curves by nonlinear curve fitting with the program SCTFIT [31].
(§2) CHO cells stably transfected with human ARs were grown adherently and maintained in Dulbecco’s Modified Eagles Medium with nutrient mixture F12 (DMEM/F12) without nucleosides, containing 10% fetal calf serum, penicillin (100 U/mL), streptomycin (100 μg/mL), L-glutamine (2 mM), and Geneticin (G-418, 0.2 mg/mL) at 37 °C in 5% CO2/95% air, as described earlier. For radioligand binding studies and measurement of adenylyl cyclase activity, crude membrane fractions were prepared from fresh or frozen cells with two different protocols described earlier. The determination of adenylyl cyclase activity followed the procedure described earlier. IC50 values for the inhibition of adenylyl cyclase stimulated (in the case of A2BAR) with 5 μM NECA were calculated with the Hill equation and converted to Ki values with the Cheng and Prusoff equation [32].
(§3) [^3H]CCPA (2-chloro-N^6-cyclopentylAdo) and [^3H]NECA (5′-N-ethylcarboxamidoAdo) were used as specific radioligands at A1ARand A2A / A3 ARs, respectively. Furthermore, the ability of the same compounds to inhibit NECA-stimulated adenylyl cyclase activity was evaluated at the A2BAR subtype. The results of the binding studies (A1, A2A, and A3 ARs) and functional data (A2BAR) are reported in Table 1 as Ki or IC50 values in nM, together with the data on the reference compounds 1–3.

[3] = molecular target: T3, human A2BAR (Homo sapiens, UniProt P29275); experiment: Inhibition of NECA-stimulated adenylyl cyclase activity at human A2BAR; assay type: biochemical; conditions: inhibition of NECA-stimulated AC activity, CHO cells expressing human A2BAR; geometric mean with 95% confidence limits; read-out: IC50 A2B
T3 construct: expressed in transfected cells; host or cells: CHO cells, crude membrane fractions
T3 sequence (P29275 1-332): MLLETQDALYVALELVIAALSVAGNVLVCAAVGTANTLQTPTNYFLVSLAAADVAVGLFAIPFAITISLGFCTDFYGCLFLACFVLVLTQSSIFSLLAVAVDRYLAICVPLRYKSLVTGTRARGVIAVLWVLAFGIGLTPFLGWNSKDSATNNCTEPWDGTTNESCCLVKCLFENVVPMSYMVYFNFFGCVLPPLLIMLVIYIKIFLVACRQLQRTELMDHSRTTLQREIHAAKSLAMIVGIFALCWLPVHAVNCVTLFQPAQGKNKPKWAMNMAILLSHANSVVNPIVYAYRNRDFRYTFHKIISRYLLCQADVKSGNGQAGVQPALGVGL
Method: as §2, §3

[4] = molecular target: T4, human A3AR (Homo sapiens, UniProt P0DMS8); experiment: Radioligand binding, displacement of [3H]NECA at human A3AR in CHO cells; conditions: [3H]-NECA displacement, geometric mean with 95% confidence limits, read-out: Ki A3
T4 construct: expressed in transfected cells; host or cells: CHO cells, crude membrane fractions
T4 sequence (P0DMS8 1-318): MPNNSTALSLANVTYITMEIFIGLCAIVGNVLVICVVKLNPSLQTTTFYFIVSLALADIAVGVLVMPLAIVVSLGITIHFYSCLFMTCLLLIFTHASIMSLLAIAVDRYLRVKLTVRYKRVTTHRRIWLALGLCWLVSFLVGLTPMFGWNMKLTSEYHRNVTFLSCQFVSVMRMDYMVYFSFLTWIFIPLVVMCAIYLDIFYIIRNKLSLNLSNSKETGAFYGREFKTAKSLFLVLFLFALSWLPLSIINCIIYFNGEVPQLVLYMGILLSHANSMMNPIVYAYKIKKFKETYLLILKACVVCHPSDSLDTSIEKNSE
Method: as §1, §2, §3

IC50 [1]	Ki [2]	IC50 [3]	Ki [4]	Compound	cAMP production when tested alone (agonist behavior) [1]
278 ± 49 nM	86 nM	6510 nM	359 nM	CCOc1nc2c(N)nc(OCCc3ccccc3)nc2n1CC [Compound 4, 8-ethoxy-9-ethyl-2-phenethoxyadenine]	not able to stimulate cAMP production; also recorded: no increase in cAMP production was detected
114 ± 25 nM	25 nM	719 nM	489 nM	CCn1c(I)nc2c(N)nc(OCCc3ccccc3)nc21 [Compound 5, 9-ethyl-8-iodo-2-phenethoxy-9H-purin-6-amine]	not able to stimulate cAMP production; also recorded: no increase in cAMP production was detected

Compound	IC50 [1]	Ki [2]	IC50 [3]	Ki [4]	cAMP production when tested alone (agonist behavior) [1]
CCn1c(Br)nc2c(N)nc(OCCc3ccccc3)nc21 [Compound 1, 8-bromo-9-ethyl-2-phenetoxyadenine]	108 ± 23 nM	–	–	–	not able to stimulate cAMP production; also recorded: no increase in cAMP production was detected
